The target of one assay is T1, K2P4.1(TRAAK) (Mus musculus, UniProt O88454).
T1 construct: expressed in transfected cells; host or cells: Xenopus laevis oocytes injected with mRNA made from pGEMHE/pMO
T1 sequence (O88454 1-398): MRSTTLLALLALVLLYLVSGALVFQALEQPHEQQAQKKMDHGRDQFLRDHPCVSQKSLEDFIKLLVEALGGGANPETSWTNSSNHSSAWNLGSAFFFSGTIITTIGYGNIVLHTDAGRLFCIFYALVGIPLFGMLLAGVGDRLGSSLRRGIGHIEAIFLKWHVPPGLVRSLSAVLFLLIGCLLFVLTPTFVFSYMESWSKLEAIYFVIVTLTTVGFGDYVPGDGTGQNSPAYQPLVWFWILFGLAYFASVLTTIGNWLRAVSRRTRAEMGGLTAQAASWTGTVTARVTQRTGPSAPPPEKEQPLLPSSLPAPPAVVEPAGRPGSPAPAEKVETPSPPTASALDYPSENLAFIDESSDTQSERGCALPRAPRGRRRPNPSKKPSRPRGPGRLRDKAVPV
The assay can be described thus: TEVC of K2P4.1(TRAAK) in Xenopus oocytes. Format: cell-based. To be noted: I/I0 at 0 mV. An excerpt: (§1) Constructs for murine K2P channels, including K2P2.1(TREK-1) (Gene ID 16526), K2P10.1(TREK-2) (Gene ID 72258), K2P4.1(TRAAK) (Gene ID 16528), K2P5.1(TASK-2) (Gene ID 16529), K2P3.1(TASK-1) (Gene ID 16527), K2P9.1(TASK-3) (Gene ID 223604), and K2P18.1(TRESK) (Gene ID 332396) in pGEMHE/pMO, were used for Xenopus oocyte experiments as previously described.[10],[26] Murine K2P2.1(TREK-1) (Gene ID 16526) was expressed in HEK-293 cells using a pIRES-EGFP construct as previously described.[26] Murine K2P13.1(THIK-1) (Gene ID 217826) and K2P1.1(TWIK-1) (Gene ID 16525) were cloned into pGEMHE/pMO for use in Xenopus oocytes. Chimeras were designed using EMBOSS Needle pairwise sequence alignment tool[58] to match homologous helices in K2P2.1(TREK-1) and K2P4.1(TRAAK) and were assembled using the Gibson assembly method.[59] Chimera boundaries are Thr152 (TREK-1/AAK M2-C), Trp199 (TREK-1/AAK M3-C), Y272 (TREK-1/AAK M4-C), Thr114 (TRAAK/EK-1 M2-C), Trp161 (TRAAK/EK-1 M3-C), and Tyr234 K2P4.1(TRAAK). All sequences were verified using DNA sequencing.
(§2) Xenopus laevis oocytes were harvested in accordance with UCSF IACUC protocol AN129690 and digested in calcium-free ND-96 (96 mM NaCl, 2 mM KCl, 3.8 mM MgCl2) immediately following harvest, as previously described.[6],[10] Digested oocytes were maintained in standard ND96 (96 mM NaCl, 2 mM KCl, 1.8 mM CaCl2, 2 mM MgCl2) with antibiotics (100 units mL^–1 penicillin, 100 μg mL^–1 streptomycin, 50 μg mL^–1 gentimycin). Defolliculated stage V–VI oocytes were injected with 0.2–6.0 ng of mRNA in 50 nL, and currents were recorded 24–48 h after injection. mRNA was synthesized from plasmid DNA using mMessage mMachine Kit (T7 promoter, Ambion, Life Technologies) and purified using RNEasy Kit (Qiagen). Injected oocytes were impaled with two standard microelectrodes (0.2–1.0 MΩ) filled with 3 M KCl and subjected to constant perfusion of standard ND96 during recording. Currents were amplified using the GeneClamp 500B (MDS Analytical Technologies) amplifier controlled by the pClamp software (Molecular Devices). Data were digitized at 1 kHz using Digidata 1332A (MDS Analytical Technologies). For all experiments with small molecules, basal currents were evoked using 1 s long ramps from −150 to +50 mV under constant perfusion of ND96. Once stabilized basal currents were recorded, compounds were perfused at various concentrations in standard ND96 and currents were allowed to increase to stabilization before recording final current. Fold activation upon compound application is expressed as I/I0 (0 mV), derived from the current at 0 mV in the presence of compound divided by the basal current at 0 mV in standard ND96 without compound. Data were analyzed and plotted using Graphpad Prism Version 5 (GraphPad Software, San Diego California USA, www.graphpad.com). […] In the case of BL-1249-acid EC50 estimation, upper bound of I/I0 was set to 20 to account for the strong stimulation of BL-1249-acid.

The next assay concerns the target T2, K2P2.1(TREK-1) (Mus musculus, UniProt P97438).
T2 sequence (P97438 1-411 isoform P97438-2): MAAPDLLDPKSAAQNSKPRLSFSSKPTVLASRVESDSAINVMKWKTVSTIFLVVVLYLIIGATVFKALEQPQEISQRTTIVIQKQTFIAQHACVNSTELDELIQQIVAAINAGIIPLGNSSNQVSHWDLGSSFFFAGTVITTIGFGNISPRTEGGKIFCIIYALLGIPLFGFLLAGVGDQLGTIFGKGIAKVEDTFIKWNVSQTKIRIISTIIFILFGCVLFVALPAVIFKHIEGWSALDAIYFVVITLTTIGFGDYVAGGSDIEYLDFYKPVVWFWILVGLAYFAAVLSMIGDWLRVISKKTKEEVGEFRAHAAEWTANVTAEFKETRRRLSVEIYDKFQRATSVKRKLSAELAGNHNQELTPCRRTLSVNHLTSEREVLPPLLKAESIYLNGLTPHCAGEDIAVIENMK
The assay can be described thus: TEVC of K2P2.1(TREK-1) in Xenopus oocytes. Format: cell-based. More on the design: expressed in transfected cells; host or cells: Xenopus laevis oocytes injected with mRNA made from pGEMHE/pMO. To be noted: for effect on K2P2.1(TREK-1) current (in words): dose-response.
Description: as §1, §2

For another assay, the system named is K2P18.1(TRESK). Further details: method as in PMID 27641472. The note with it: cited from earlier work.
Another assay concerns the target T3, TREK-1/AAK M4-C (Mus musculus, UniProt O88454+P97438).
T3 construct: Y272 (TREK-1/AAK M4-C); expressed in transfected cells; host or cells: Xenopus laevis oocytes, mRNA injected; chimera built by Gibson assembly
T3 sequence (P97438+O88454 with tags, fused parts or gaps P97438:V273L/P97438:V280F/P97438:A287S/P97438:S290T/P97438:M291T/P97438:D294N): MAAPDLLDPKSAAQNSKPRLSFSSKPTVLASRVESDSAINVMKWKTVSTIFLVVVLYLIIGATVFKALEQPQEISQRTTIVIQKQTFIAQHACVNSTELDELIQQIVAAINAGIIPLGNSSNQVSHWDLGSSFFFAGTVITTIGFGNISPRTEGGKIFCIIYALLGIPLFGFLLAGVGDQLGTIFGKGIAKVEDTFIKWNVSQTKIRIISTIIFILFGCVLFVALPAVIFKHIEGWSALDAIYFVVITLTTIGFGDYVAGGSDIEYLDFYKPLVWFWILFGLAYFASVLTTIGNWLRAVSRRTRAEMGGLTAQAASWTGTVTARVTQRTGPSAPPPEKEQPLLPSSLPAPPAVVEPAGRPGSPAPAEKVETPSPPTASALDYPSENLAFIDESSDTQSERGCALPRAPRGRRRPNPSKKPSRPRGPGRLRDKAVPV
The assay can be described thus: TEVC of chimera TREK-1/AAK M4-C. It is filed as cell-based. The note with it: Xenopus oocytes.

The target in another assay is T4, TREK-1/AAK M3-C (Mus musculus, UniProt O88454+P97438).
T4 construct: Trp199 (TREK-1/AAK M3-C); expressed in transfected cells; host or cells: Xenopus laevis oocytes, mRNA injected; chimera built by Gibson assembly
T4 sequence (P97438+O88454 with tags, fused parts or gaps P97438:N200H/P97438:S202P/P97438:Q203P/P97438:T204G/P97438:K205L/P97438:I206V/P97438:I208S/P97438:I209L/P97438:T211A/P97438:I212V/P97438:I213L/P97438:I215L/P97438:F217I/P97438:V220L/P97438:A224L/P97438:L225T/P97438:A227T/P97438:V228F/P97438:I229V/P97438:K231S/P97438:H232Y/P97438:I233M/P97438:G235S/P97438:A238K/P97438:D240E/P97438:V246I/P97438:I247V/P97438:I252V/P97438:A259P/P97438:G261D/P97438:S262G/P97438:D263T/P97438:I264G/P97438:E265Q/P97438:Y266N/P97438:L267S/P97438:D268P/P97438:F269A/P97438:K271Q/P97438:V273L/P97438:V280F/P97438:A287S/P97438:S290T/P97438:M291T/P97438:D294N): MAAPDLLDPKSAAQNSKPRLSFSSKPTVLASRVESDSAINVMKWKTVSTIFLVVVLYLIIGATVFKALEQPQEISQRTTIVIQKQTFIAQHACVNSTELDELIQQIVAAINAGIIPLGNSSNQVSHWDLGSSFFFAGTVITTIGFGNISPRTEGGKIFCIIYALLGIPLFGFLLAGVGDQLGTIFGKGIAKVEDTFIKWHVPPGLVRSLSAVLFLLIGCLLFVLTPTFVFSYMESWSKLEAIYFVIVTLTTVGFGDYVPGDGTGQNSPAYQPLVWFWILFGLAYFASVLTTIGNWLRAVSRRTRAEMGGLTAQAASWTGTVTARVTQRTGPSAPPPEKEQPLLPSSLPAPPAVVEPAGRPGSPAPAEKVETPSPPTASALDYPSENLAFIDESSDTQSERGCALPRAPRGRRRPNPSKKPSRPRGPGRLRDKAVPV
The assay can be described thus: TEVC of chimera TREK-1/AAK M3-C. Format: cell-based. The note with it: Xenopus oocytes.

In another assay the target is TREK-1/AAK M2-C (Mus musculus, UniProt O88454+P97438). The assay can be described thus: TEVC of chimera TREK-1/AAK M2-C. Format: cell-based. The note with it: Xenopus oocytes.
TREK-1/AAK M2-C, sequence (P97438 16-167, one chain of several): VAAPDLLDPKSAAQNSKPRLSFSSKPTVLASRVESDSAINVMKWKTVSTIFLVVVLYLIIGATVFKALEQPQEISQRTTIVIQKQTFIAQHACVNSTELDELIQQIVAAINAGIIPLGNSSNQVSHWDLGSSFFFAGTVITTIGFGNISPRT
The target in the next assay is T5, TRAAK/EK-1 M4-C (Mus musculus, UniProt O88454+P97438, F242V/L235V/N256D/S249A/T252S/T253M).
T5 construct: and Tyr234 K2P4.1(TRAAK); expressed in transfected cells; host or cells: Xenopus laevis oocytes, mRNA injected; chimera built by Gibson assembly
T5 sequence (O88454+P97438 fused with the stated changes): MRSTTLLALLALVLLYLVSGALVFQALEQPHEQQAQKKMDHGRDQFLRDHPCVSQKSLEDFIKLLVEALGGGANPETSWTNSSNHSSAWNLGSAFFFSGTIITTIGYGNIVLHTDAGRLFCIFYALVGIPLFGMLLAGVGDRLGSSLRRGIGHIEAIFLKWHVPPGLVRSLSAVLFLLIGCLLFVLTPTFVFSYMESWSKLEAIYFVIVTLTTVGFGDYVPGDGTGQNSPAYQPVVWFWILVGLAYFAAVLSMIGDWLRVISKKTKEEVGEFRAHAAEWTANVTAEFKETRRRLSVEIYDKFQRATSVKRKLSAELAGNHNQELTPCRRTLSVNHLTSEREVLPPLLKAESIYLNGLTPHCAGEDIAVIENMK
The assay can be described thus: TEVC of chimera TRAAK/EK-1 M4-C. It is filed as cell-based. To be noted: Xenopus oocytes.

The target in another assay is T6, TRAAK/EK-1 M3-C (Mus musculus, UniProt O88454+P97438, A173T/A231F/D223G/E202D/F190V/F242V/G166T/G224S/G226I/H162N/I179F/I208V/K200A/L167K/L171I/L175I/L177I/L182V/L186A/L235V/M195I/N228Y/N256D/P164S/P165Q/P221A/P230D/Q227E/Q233K/S170I/S193K/S197G/S229L/S249A/T187L/T189A/T225D/T252S/T253M/V168I/V174I/V191I/V209I/V214I/Y194H).
T6 construct: Trp161 (TRAAK/EK-1 M3-C); expressed in transfected cells; host or cells: Xenopus laevis oocytes, mRNA injected; chimera built by Gibson assembly
T6 sequence (O88454+P97438 fused with the stated changes): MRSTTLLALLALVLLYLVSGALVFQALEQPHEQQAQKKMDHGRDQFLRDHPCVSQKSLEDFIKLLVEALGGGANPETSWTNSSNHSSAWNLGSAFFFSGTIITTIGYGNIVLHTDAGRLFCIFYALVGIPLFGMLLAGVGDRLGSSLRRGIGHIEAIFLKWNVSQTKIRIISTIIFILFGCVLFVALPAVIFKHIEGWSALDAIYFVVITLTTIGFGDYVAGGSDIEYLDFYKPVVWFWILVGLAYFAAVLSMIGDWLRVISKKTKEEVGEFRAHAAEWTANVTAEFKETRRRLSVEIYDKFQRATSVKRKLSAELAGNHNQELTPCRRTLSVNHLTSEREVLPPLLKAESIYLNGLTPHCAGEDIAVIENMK
The assay can be described thus: TEVC of chimera TRAAK/EK-1 M3-C. Format: cell-based. To be noted: Xenopus oocytes.

The next assay has as its target T7, TRAAK/EK-1 M2-C (Mus musculus, UniProt O88454+P97438, A151S/D143N/F160Y/H141A/P165L/Q138H/R166H/S147A/S164V/V139S/V154I).
T7 construct: Thr114 (TRAAK/EK-1 M2-C); expressed in transfected cells; host or cells: Xenopus laevis oocytes, mRNA injected; chimera built by Gibson assembly
The assay can be described thus: TEVC of chimera TRAAK/EK-1 M2-C. It is filed as cell-based. The note with it: Xenopus oocytes.

The mark [1] stands for this setting: extracellular application, fold activation I/I0 at 0 mV.

Molecules are shown by their SMILES.

The text below walks through data of PMC6302903, “Protein and Chemical Determinants of BL-1249 Action and Selectivity for K2P Channels” (ACS Chemical Neuroscience, 2018).

T7 sequence (O88454+P97438 fused with the stated changes): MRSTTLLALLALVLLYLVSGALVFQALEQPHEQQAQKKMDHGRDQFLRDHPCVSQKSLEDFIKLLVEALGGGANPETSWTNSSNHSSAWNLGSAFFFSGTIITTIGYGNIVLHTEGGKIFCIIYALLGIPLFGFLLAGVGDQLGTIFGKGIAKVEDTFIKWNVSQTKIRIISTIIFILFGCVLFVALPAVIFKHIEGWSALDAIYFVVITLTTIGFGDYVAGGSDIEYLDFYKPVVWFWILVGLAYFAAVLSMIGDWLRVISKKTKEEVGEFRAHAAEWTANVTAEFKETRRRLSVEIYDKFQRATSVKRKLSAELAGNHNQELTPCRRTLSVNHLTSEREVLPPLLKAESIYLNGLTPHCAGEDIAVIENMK

Take `c1ccc(Nc2ccccc2-c2nnn[nH]2)cc1` [BL-1249-Ph]: the EC50 on K2P4.1(TRAAK) and on K2P2.1(TREK-1) (setting [1]) was over 200 µM in each case. Moreover, the “effect on K2P2.1(TREK-1) current (in words)” value (from here on “effect … (in words)”) at K2P2.1(TREK-1) is “only a small amount of stimulatory effect”.

Consider `O=C(O)c1ccccc1Nc1cccc2c1CCCC2` [BL-1249-acid], for which the EC50 on K2P4.1(TRAAK) is over 200 µM. Further, the “functional effect on K2P18.1(TRESK)” value in the assay with K2P18.1(TRESK) is on record as “inhibitor”. In addition, at K2P2.1(TREK-1), the “loss of potency on K2P2.1(TREK-1) relative to BL-1249-amide” value is listed as about 2 fold and the “effect … (in words)” value is “stronger stimulatory effect on the current than either BL-1249 or BL-1249-amide”. The EC50 at K2P2.1(TREK-1) (EC50 estimated imposing an upper boundary of 20 (fold activation, I/I0)) was 44 ± 10 µM.

On to `NC(=O)c1ccccc1Nc1cccc2c1CCCC2` [BL-1249-amide], for which the EC50 on K2P4.1(TRAAK) is over 200 µM; on K2P2.1(TREK-1) (setting [1]), 22 ± 8 µM.

`c1ccc2c(c1)Nc1c(-c3nnn[nH]3)cccc1C21CCCCC1` [BL-1249-tricycle]: the concentration giving a half-maximal response (EC50) at K2P4.1(TRAAK) is 42 ± 9 µM; at K2P2.1(TREK-1) (setting [1]) it was 34 ± 6 µM. In addition, the “effect … (in words)” value at K2P2.1(TREK-1) was “inhibition between 0.1 and 10 μM followed by activation at higher concentrations”.

In the case of `CC1(C)c2cc(Cl)ccc2N(CCc2nn[nH]n2)c2ccc(Cl)cc21` [ML67-33], the EC50 came out at 42 ± 3 µM at TREK-1/AAK M4-C; 49 ± 22 µM at TREK-1/AAK M3-C; 42 ± 3 µM at TREK-1/AAK M2-C; 31 ± 3 µM at TRAAK/EK-1 M4-C; 44 ± 14 µM at TRAAK/EK-1 M3-C; 33 ± 1 µM at TRAAK/EK-1 M2-C.
